The target of the assay is 5-hydroxytryptamine receptor 2A (Rattus norvegicus, UniProt P14842). The assay can be described thus: Binding affinity at rat 5HT2A receptor.

Each structure is given as a SMILES string.

This is an account of results in ChEMBL document CHEMBL1145442, “Multistructure 3D-QSAR studies on a series of conformationally constrained butyrophenones docked into a new homology model of the 5-HT2A receptor” (J Med Chem, 2007).

The term Ki denotes a dissociation constant, usually derived from enzyme kinetics or from competition with a known ligand. Read a low Ki as a stronger hold on the target.

Sequence of 5-hydroxytryptamine receptor 2A (P14842 whole entry): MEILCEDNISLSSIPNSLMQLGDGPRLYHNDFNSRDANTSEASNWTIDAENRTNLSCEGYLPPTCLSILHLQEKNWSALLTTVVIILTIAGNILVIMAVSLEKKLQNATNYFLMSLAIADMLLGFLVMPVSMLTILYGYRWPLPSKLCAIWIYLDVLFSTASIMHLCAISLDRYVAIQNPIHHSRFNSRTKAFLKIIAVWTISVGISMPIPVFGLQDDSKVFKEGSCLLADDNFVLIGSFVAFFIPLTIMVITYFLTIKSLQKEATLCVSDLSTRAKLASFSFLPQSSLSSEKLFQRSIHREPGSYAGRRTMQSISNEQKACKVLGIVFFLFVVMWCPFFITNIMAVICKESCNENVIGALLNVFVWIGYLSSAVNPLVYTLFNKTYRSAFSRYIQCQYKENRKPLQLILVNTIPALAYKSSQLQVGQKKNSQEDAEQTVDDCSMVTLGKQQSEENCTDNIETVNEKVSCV

As for `O=C1CC(CN2CCN(CCCCC(=O)c3ccc(F)cc3)CC2)C(c2ccccc2)=NN1` (stereo unspecified), the Ki was 1 µM.
Compound `O=C1CC(CN2CCC3(CC2)NCNC3=O)Cc2ccccc21` (stereo unspecified) had an inhibition constant Ki greater than 10 µM.
For `COc1cc2c(cc1OC)C(=O)CC(CN1CCC3(CC1)NC(=O)NC3=O)C2` (stereo unspecified), the Ki is greater than 10 µM.
For the compound `O=C1c2ccoc2CCC1CCN1CCN(C(=O)c2ccc(F)cc2)CC1` (stereo unspecified), the inhibition constant Ki was 2 µM.
With `O=C1CC(CN2CCN(CCCC(=O)c3ccc(F)cc3)CC2)C(c2ccccc2)=NN1` (stereo unspecified) the figure was 0.275 µM.
Next, `O=C1CC(CN2CCC(c3noc4cc(F)ccc34)CC2)C(c2ccccc2)=NN1` (stereo unspecified): 0.0575 µM.
